Measurements: patent US20260000079A1, “COMPOSITIONS AND METHODS FOR MODULATING IMMUNITY IN PLANTS” (BOYCE THOMPSON INSTITUTE FOR PLANT RESEARCH, INC., priority 2019, published 2026)

Tests used:
Meloidogyne incognita = assay: Arabidopsis nematode infection assay (root galls); format: in vivo; conditions: 48 hours root pretreatment
Description: FIG. 4A provides a schematic of the experimental designs for assessing activation of defense pathways and resistance to nematodes and bacteria. […] Bacterial growth was assayed 3 days post inoculation. Data are averages±s.d. (n=17). […] Arabidopsis seedlings were treated with buffer or the indicated concentrations of ascr #18 for 48 hours before inoculation with approximately 300 freshly hatched M. incognita J2 larvae. The numbers of root galls of infected plants were counted 6 weeks post inoculation. Data are averages±s.d. (n≥15). […] Arabidopsis seedlings were treated with the indicated concentrations of ascr #18 for 48 hours before transfer into 12-well plates containing Pluronic® F-127 gel with ˜200 freshly hatched M. incognita J2 larvae. Larvae touching root tips (FIG. 4D) or the whole area of roots (FIG. 4E) were counted at 6 hours post seedling transfer. Data are average±s.d. (n=12). […] Transcript levels were determined by qRT-PCR and plotted as relative fold-change compared to mock treated plants. Data are averages±s.d (n≥6). *P≤0.05; **P≤0.005; ***P≤0.0005; two-tailed t-test.
For Arabidopsis nematode infection assays, Meloidogyne incognita was propagated and hatched as described (Manosalva, et al. (2015) Nat. Commun. 6:7795). Briefly, M. incognita were propagated on tomato (Solanum lycopersicum cv. Tiny Tim). M. incognita eggs were then isolated from egg masses on tomato roots with 0.5% sodium hypochlorite and rinsed with water on a 25-μm sieve. Collected nematode eggs were treated in a solution of 0.02% sodium azide for 20 minutes, and then hatched over water containing 1.5 mg/mL gentamycin sulfate and 0.05 mg/mL nystatin at room temperature on a Baermann pan for three days. Hatched second-stage juveniles (J2) were collected, surface sterilized with an aqueous solution of mercuric chloride (0.004%) and sodium azide (0.004%) for 10 minutes, and rinsed three times with sterile distilled water. […] Galls for M. incognita were counted under a microscope six weeks after inoculation. […]

tomato root exudates = assay: LC-MS of root exudates and growth media of ascr #18-treated tomato seedlings; format: in vivo, Solanum lycopersicum
Description: Data are average±SEM (n=6), n.d.=not detected. […] Exudates from approximately 40 seedlings were collected in distilled water and pooled. Abundances of ascarosides are shown as the peak area, as measured by LC-MS. Data are average±SEM (n=3); n.d.=not detected. FIGS. 5C and 5D show the relative abundances of ascarosides in root exudates of eight-day old tomato seedlings treated with 10 nM (FIG. 5C) or 1000 nM (FIG. 5D) ascr #18 for 6 hours. Exudates from approximately 10 seedlings were collected in distilled water and pooled. Abundances of ascarosides are shown as the peak area, as measured by LC-MS. Data are average±SEM (n=3); n.d.=not detected. FIG. 5E provides the relative abundances of ascr #10, ascr #1, and ascr #9 in the growth media of eight-day old tomato seedlings supplemented with 1 μM ascr #18. Ten-gram media samples were collected at different time points over a 48 hour period for metabolome extraction. Abundances of ascarosides are shown as the peak area, as measured by LC-MS.
To test this possibility, root-secreted metabolites of ascr #18- and mock-treated Arabidopsis were compared (FIG. 5A). For this experiment, 10-day old Arabidopsis seedlings were treated in growth media supplemented with ascr #18 for 6 hours prior to collection of exudates from roots submerged in water. […] Analogous results were obtained in experiments with tomato roots (FIG. 5C, 5D).

With `CC1O[C@@H](O[C@@H](C)CCCCCCCCC(=O)O)C(O)C[C@H]1O` (stereo in doubt) [ascr #18, (10R)-(3′R,5′R-dihydroxy-6′S-methyl-(2H)-tetrahydropyran-2-yloxy)-undecanoic acid] as the molecule, how does the “protection against M. incognita (root galls 6 weeks post inoculation)” value (shortened to “protection against M. incognita”) (Meloidogyne incognita; acx1acx5 mutant) read?
The value was “no effect”.

What about the “protection against M. incognita” value (Meloidogyne incognita; wildtype, 10 nM) of the same molecule?
The value was “significant protection”.

What about the “protection against M. incognita” value (Meloidogyne incognita; wildtype, 50 nM) of the same molecule?
Its value is “significant protection”.

How did the “relative abundance among root-excreted ascr #18 metabolites” value (tomato root exudates) turn out when `C[C@H](CCC(=O)O)O[C@@H]1O[C@@H](C)[C@H](O)C[C@H]1O` [ascr #9] was run?
The value was “most abundant”.
